pIC50: −log10 of the molar value.
The compounds below were run against T1, Recombinant Human ENPP-2/Autotaxin (Homo sapiens, UniProt Q13822) (assay: LysoPLD activity measurement (autotaxin enzyme inhibition, choline release, TOOS reagent)). Conditions: LysoPLD inhibitory activity; substrate 14:0 LysoPC; absorbance at 555 nm.
T1 construct: purchased R&D systems 5255-EN
Type: biochemical
Summary of the method: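 Autotaxin lysoPLD activity was read as choline released from 14:0 LysoPC, detected by TOOS reagent absorbance. Compound was preincubated 30 min, then substrate diluted to 300 μM was added and the reaction ran 90 minutes at 37° C. Controls contained 1% DMSO.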

First: O=C(O)c1coc(Cn2c(=O)n(-c3ccc(N4CCOCC4)cc3)c3c(F)c(Cl)ccc32)n1 [Example 199, 2-((5-chloro-4-fluoro-3-(4-morpholinophenyl)-2-oxo-2,3-dihydro-1H-benzo[d]imidazol-1-yl)methyl)oxazole-4-carboxylic acid]
Second: O=C(O)c1c(F)ccc(Cn2c(=O)n(-c3ccc(N4CCOCC4)cc3)c3c(F)c(Cl)ccc32)c1F [Example 204, 3-((5-chloro-4-fluoro-3-(4-morpholinophenyl)-2-oxo-2,3-dihydro-1H-benzo[d]imidazol-1-yl)methyl)-2,6-difluorobenzoic acid]
The pIC50 of the first is lower: 6.00 to 7.00 for the first, 7.00 to 8.00 for the second.

`O=C(O)c1cc(Cn2c(=O)n(-c3ccc(N4CCOCC4)cc3)c3c(F)c(Cl)ccc32)cc(F)c1F` [Example 202, 5-((5-chloro-4-fluoro-3-(4-morpholinophenyl)-2-oxo-2,3-dihydro-1H-benzo[d]imidazol-1-yl)methyl)-2,3-difluorobenzoic acid] and `O=C(O)c1cc(Cn2c(=O)n(-c3ccc(N4CCOCC4)cc3)c3cc(Cl)ccc32)cc(F)c1F` [Example 203, 5-((5-chloro-3-(4-morpholinophenyl)-2-oxo-2,3-dihydro-1H-benzo[d]imidazol-1-yl)methyl)-2,3-difluorobenzoic acid] fall in the same range of pIC50: 7.00 to 8.00 for the first, 7.00 to 8.00 for the second.

`O=C(O)c1c(F)ccc(Cn2c(=O)n(-c3ccc(N4CCOCC4)cc3)c3cc(Cl)ccc32)c1F` [Example 205, 3-((5-chloro-3-(4-morpholinophenyl)-2-oxo-2,3-dihydro-1H-benzo[d]imidazol-1-yl)methyl)-2,6-difluorobenzoic acid] and `O=C(O)c1cccc(C2(n3c(=O)n(-c4ccc(N5CCOCC5)cc4)c4cc(Cl)cnc43)CC2)c1F` [Example 230] fall in the same range of pIC50: 7.00 to 8.00 for the first, 7.00 to 8.00 for the second.

`CN(C)c1ccc(-n2c(=O)n(C3(c4cccc(C(=O)O)c4)CC3)c3ccc(C(F)(F)F)cc32)cc1` [Example 206, 3-(1-(3-(4-(dimethylamino)phenyl)-2-oxo-5-(trifluoromethyl)-2,3-dihydro-1H-benzo[d]imidazol-1-yl)cyclopropyl)benzoic acid] and `CN(C)c1ccc(-n2c(=O)n(C3(c4cccc(C(=O)O)c4)CC3)c3ccc(OC(F)(F)F)cc32)cc1` [Example 208, 3-(1-(3-(4-(dimethylamino)phenyl)-2-oxo-5-(trifluoromethoxy)-2,3-dihydro-1H-benzo[d]imidazol-1-yl)cyclopropyl)benzoic acid] fall in the same range of pIC50: 7.00 to 8.00 for the first, 7.00 to 8.00 for the second.

Compared with `O=C(O)c1cccc(C2(n3c(=O)n(-c4ccc(N5CCOCC5)cc4)c4cc(C(F)(F)F)ccc43)CC2)c1` [Example 207, 3-(1-(3-(4-morpholinophenyl)-2-oxo-5-(trifluoromethyl)-2,3-dihydro-1H-benzo[d]imidazol-1-yl)cyclopropyl)benzoic acid], `O=C(O)c1cccc(C2(n3c(=O)n(-c4ccc(N5CCOCC5)cc4)c4cc(OC(F)(F)F)ccc43)CC2)c1` [Example 209, 3-(1-(3-(4-morpholinophenyl)-2-oxo-5-(trifluoromethoxy)-2,3-dihydro-1H-benzo[d]imidazol-1-yl)cyclopropyl)benzoic acid] is lower in pIC50: over 8.00 for the first, 7.00 to 8.00 for the second.

`CN(C)S(=O)(=O)c1ccc(-n2c(=O)n(C3(c4cccc(C(=O)O)c4)CC3)c3ccc(Cl)cc32)cc1` [Example 210, 3-(1-(5-chloro-3-(4-(N,N-dimethylsulfamoyl)phenyl)-2-oxo-2,3-dihydro-1H-benzo[d]imidazol-1-yl)cyclopropyl)benzoic acid] and `O=C(O)c1cccc(C2(n3c(=O)n(-c4ccc(S(=O)(=O)NC5CC5)cc4)c4cc(Cl)ccc43)CC2)c1` [Example 211, 3-(1-(5-chloro-3-(4-(N-cyclopropylsulfamoyl)phenyl)-2-oxo-2,3-dihydro-1H-benzo[d]imidazol-1-yl)cyclopropyl)benzoic acid] cannot be ordered by pIC50: over 8.00 for the first, over 8.00 for the second.

`O=C(O)c1cccc(C2(n3c(=O)n(-c4ccc(S(=O)(=O)N5CCOCC5)cc4)c4cc(Cl)ccc43)CC2)c1` [Example 212, 3-(1-(5-chloro-3-(4-(morpholinosulfonyl)phenyl)-2-oxo-2,3-dihydro-1H-benzo[d]imidazol-1-yl)cyclopropyl)benzoic acid] and `O=C(O)c1cccc(C2(n3c(=O)n(-c4ccc(S(=O)(=O)N5CCCC5)cc4)c4cc(Cl)ccc43)CC2)c1` [Example 215, 3-(1-(5-chloro-2-oxo-3-(4-(pyrrolidin-1-ylsulfonyl)phenyl)-2,3-dihydro-1H-benzo[d]imidazol-1-yl)cyclopropyl)benzoic acid] cannot be ordered by pIC50: over 8.00 for the first, over 8.00 for the second.

First: O=C(O)c1cccc(C2(n3c(=O)n(-c4ccc(S(=O)(=O)NCC5CCC5)cc4)c4cc(Cl)ccc43)CC2)c1 [Example 213, 3-(1-(5-chloro-3-(4-(N-(cyclobutylmethyl)sulfamoyl)phenyl)-2-oxo-2,3-dihydro-1H-benzo[d]imidazol-1-yl)cyclopropyl)benzoic acid]
Second: O=C(O)c1cccc(C2(n3c(=O)n(-c4ccc(S(=O)(=O)N5CCCCC5)cc4)c4cc(Cl)ccc43)CC2)c1 [Example 214]
The pIC50 of the first is lower: 7.00 to 8.00 for the first, over 8.00 for the second. The second is the more potent here.

First: CC(C)(O)Cc1ccc(-n2c(=O)n(C3(c4cccc(C(=O)O)c4)CC3)c3ccc(Cl)cc32)cc1 [Example 216, 3-(1-(5-chloro-3-(4-(2-hydroxy-2-methylpropyl)phenyl)-2-oxo-2,3-dihydro-1H-benzo[d]imidazol-1-yl)cyclopropyl)benzoic acid]
Second: CC(C)(F)Cc1ccc(-n2c(=O)n(C3(c4cccc(C(=O)O)c4)CC3)c3ccc(Cl)cc32)cc1 [Example 217, 3-(1-(5-chloro-3-(4-(2-fluoro-2-methylpropyl)phenyl)-2-oxo-2,3-dihydro-1H-benzo[d]imidazol-1-yl)cyclopropyl)benzoic acid]
The pIC50 of the first is higher: over 8.00 for the first, 7.00 to 8.00 for the second.

`CC(C)(CO)c1ccc(-n2c(=O)n(C3(c4cccc(C(=O)O)c4)CC3)c3ccc(Cl)cc32)cc1` [Example 218, 3-(1-(5-chloro-3-(4-(1-hydroxy-2-methylpropan-2-yl)phenyl)-2-oxo-2,3-dihydro-1H-benzo[d]imidazol-1-yl)cyclopropyl)benzoic acid] and `CC(C)(CF)c1ccc(-n2c(=O)n(C3(c4cccc(C(=O)O)c4)CC3)c3ccc(Cl)cc32)cc1` [Example 219, 3-(1-(5-chloro-3-(4-(1-fluoro-2-methylpropan-2-yl)phenyl)-2-oxo-2,3-dihydro-1H-benzo[d]imidazol-1-yl)cyclopropyl)benzoic acid] cannot be ordered by pIC50: over 8.00 for the first, over 8.00 for the second.

First: O=C(O)c1cccc(C2(n3c(=O)n(-c4ccc(C5CCOCC5)cc4)c4cc(Cl)cnc43)CC2)c1 [Example 220, 3-(1-(6-chloro-2-oxo-1-(4-(tetrahydro-2H-pyran-4-yl)phenyl)-1,2-dihydro-3H-imidazo[4,5-b]pyridin-3-yl)cyclopropyl)benzoic acid]
Second: O=C(O)c1cccc(C2(n3c(=O)n(-c4ccc(C5CCOCC5)cc4)c4cc(Cl)cnc43)CC2)c1F [Example 228, 3-(1-(6-chloro-2-oxo-1-(4-(tetrahydro-2H-pyran-4-yl)phenyl)-1,2-dihydro-3H-imidazo[4,5-b]pyridin-3-yl)cyclopropyl)-2-fluorobenzoic acid]
The pIC50 of the first is higher: over 8.00 for the first, 7.00 to 8.00 for the second. The first is the more potent here.

`CN(C)c1ccc(-n2c(=O)n(C3(c4cccc(C(=O)O)c4)CC3)c3ncc(Cl)cc32)cc1` [Example 221, 3-(1-(6-chloro-1-(4-(dimethylamino)phenyl)-2-oxo-1,2-dihydro-3H-imidazo[4,5-b]pyridin-3-yl)cyclopropyl)benzoic acid] and `CN(C)C(=O)c1ccc(-n2c(=O)n(C3(c4cccc(C(=O)O)c4)CC3)c3ncc(Cl)cc32)cc1` [Example 223, 3-(1-(6-chloro-1-(4-(dimethylcarbamoyl)phenyl)-2-oxo-1,2-dihydro-3H-imidazo[4,5-b]pyridin-3-yl)cyclopropyl)benzoic acid] cannot be ordered by pIC50: over 8.00 for the first, over 8.00 for the second.

`O=C(O)c1cccc(C2(n3c(=O)n(-c4ccc(N5CCOCC5)cc4)c4cc(Cl)cnc43)CC2)c1` [Example 222, 3-(1-(6-chloro-1-(4-morpholinophenyl)-2-oxo-1,2-dihydro-3H-imidazo[4,5-b]pyridin-3-yl)cyclopropyl)benzoic acid] and `O=C(O)c1cccc(C2(n3c(=O)n(-c4ccc(C(=O)N5CC6(CCOCC6)C5)cc4)c4cc(Cl)cnc43)CC2)c1` [Example 225, 3-(1-(1-(4-(7-oxa-2-azaspiro[3.5]nonane-2-carbonyl)phenyl)-6-chloro-2-oxo-1,2-dihydro-3H-imidazo[4,5-b]pyridin-3-yl)cyclopropyl)benzoic acid] cannot be ordered by pIC50: over 8.00 for the first, over 8.00 for the second.

Compared with `O=C(O)c1cccc(C2(n3c(=O)n(-c4ccc(C(=O)N5CC(O)C5)cc4)c4cc(Cl)cnc43)CC2)c1` [Example 224, 3-(1-(6-chloro-1-(4-(3-hydroxyazetidine-1-carbonyl)phenyl)-2-oxo-1,2-dihydro-3H-imidazo[4,5-b]pyridin-3-yl)cyclopropyl)benzoic acid], `CS(=O)(=O)c1ccc(-n2c(=O)n(C3(c4cccc(C(=O)O)c4)CC3)c3ncc(Cl)cc32)cc1` [Example 227, 3-(1-(6-chloro-1-(4-(methylsulfonyl)phenyl)-2-oxo-1,2-dihydro-3H-imidazo[4,5-b]pyridin-3-yl)cyclopropyl)benzoic acid] is lower in pIC50: over 8.00 for the first, 7.00 to 8.00 for the second.

First: CN(C)C(=O)Cc1ccc(-n2c(=O)n(C3(c4cccc(C(=O)O)c4)CC3)c3ncc(Cl)cc32)cc1 [Example 226, 3-(1-(6-chloro-1-(4-(2-(dimethylamino)-2-oxoethyl)phenyl)-2-oxo-1,2-dihydro-3H-imidazo[4,5-b]pyridin-3-yl)cyclopropyl)benzoic acid]
Second: CN(C)c1ccc(-n2c(=O)n(C3(c4cccc(C(=O)O)c4F)CC3)c3ncc(Cl)cc32)cc1 [Example 229, 3-(1-(6-chloro-1-(4-(dimethylamino)phenyl)-2-oxo-1,2-dihydro-3H-imidazo[4,5-b]pyridin-3-yl)cyclopropyl)-2-fluorobenzoic acid]
The pIC50 of the first is lower: 7.00 to 8.00 for the first, over 8.00 for the second. The second is the more potent here.

In the case of `O=C(O)c1cccc(C2(n3c(=O)n(-c4ccc(C(=O)N5CCCC5)cc4)c4cc(Cl)cnc43)CC2)c1F` [Example 231, 3-(1-(6-chloro-2-oxo-1-(4-(pyrrolidine-1-carbonyl)phenyl)-1,2-dihydro-3H-imidazo[4,5-b]pyridin-3-yl)cyclopropyl)-2-fluorobenzoic acid], the pIC50 was over 8.00.

Source: patent publication US20260265265A1, “NOVEL BENZIMIDAZOLONE DERIVATIVE COMPOUND AS AUTOTAXIN INHIBITOR” (LG CHEM, LTD., priority 2023, published 2026)
